This note sets out measurements from BindingDB's records for doi:10.1016/s0960-894x(00)00138-4 (Berlex Biosciences, 2000).

This experiment addresses Cationic trypsin (Bos taurus). Briefly: In vitro inhibition of bovine trypsin.

Broadly, the Ki is the dissociation constant of the complex between target and ligand, obtained from inhibition or displacement. `CCOC(=O)c1cc2ccc(OC3CCN(C(C)=N)CC3)cc2n1Cc1ccc2ccc(C(=N)N)cc2c1` [1-(7-Carbamimidoyl-naphthalen-2-ylmethyl)-6-[1-(1-imino-ethyl)-piperidin-4-yloxy]-1H-indole-2-carboxylic acid ethyl ester] registered an inhibition constant (Ki) of 20 nM. This counts as double-digit nanomolar. `CN(C)C(=O)COc1ccc2c3ccccc3n(Cc3ccc4ccc(C(=N)N)cc4c3)c2c1` [2-[9-(7-Carbamimidoyl-naphthalen-2-ylmethyl)-9H-carbazol-2-yloxy]-N,N-dimethyl-acetamide]: the inhibition constant Ki came to 90 nM. Compared with the last molecule, the Ki is about 4.5-fold higher. Molecule `N=C(N)c1ccc(-n2ccc3ccc(NC(=O)c4cccc(C(=N)N)c4)cc32)cc1` [3-Carbamimidoyl-N-[1-(4-carbamimidoyl-phenyl)-1H-indol-6-yl]-benzamide] gave an inhibitory constant (Ki) of 410 nM. In the case of `N=C(N)c1ccc(-n2ccc3ccc(NCc4cccc(C(=N)N)c4)cc32)cc1` [3-{1-[4-amino(imino)methylphenyl]-1H-6-indolylaminomethyl}phenyl-iminomethanamine], the affinity, expressed as Ki, was 1620 nM. On to `N=C(N)c1ccc(-n2c3ccccc3c3ccc(OCc4ccc5ccc(C(=N)N)cc5c4)cc32)cc1` [7-[9-(4-Carbamimidoyl-phenyl)-9H-carbazol-2-yloxymethyl]-naphthalene-2-carboxamidine], for which the inhibition constant Ki came out at 510 nM.

Molecule `N=C(N)c1ccc(-n2ccc3ccc(NCc4ccc5ccc(C(=N)N)cc5c4)cc32)cc1` [7-{[1-(4-Carbamimidoyl-phenyl)-1H-indol-6-ylamino]-methyl}-naphthalene-2-carboxamidine] came in with a Ki of 300 nM. Compared with the last molecule, the Ki is about 1.7-fold lower.
